Laboratory results taken from the NIST ThermoML archive (doi:10.1021/je049796y).

Assay: xn = mol fraction of the nth substance listed
Conditions: 283.65 K, Vibrating tube method

C=C [ethene] + CCO
Conditions	mass density [kg/m3]
Liquid mixture 1, x1 = 0.685	529.3
Liquid mixture 1, x1 = 0.712	503.5
Liquid mixture 2, x1 = 0.862	410
Liquid mixture 2, x1 = 0.892	385.6

Liquid
Conditions	mass density [kg/m3]
x1 = 0.101	767.8
x1 = 0.178	741.9
x1 = 0.268	708.7
x1 = 0.408	661.3
x1 = 0.512	614.1
x1 = 0.614	564.2
x1 = 0.94	347.3
x1 = 0.989	295.1
